Assay results as given in PMC8025302, “Structural and biophysical characterization of the tandem substrate-binding domains of the ABC importer GlnPQ” (Open Biology, 2021).
Where “and” joins values, the source holds several entries; their conditions need not be identical. Identical values can stand only once.

Columns and labels:
[1] = target: SBD1 of GlnPQ (isolated domain); parameters: method as in PMID 23994008; settings: ITC; cited from earlier work
[2] = test system: tandem SBD1-2 wild-type protein; test: Differential scanning calorimetry, thermostability of tandem with ligand; type: binding, Lactococcus lactis; settings: DSC; unliganded 59°C
Procedure: Furthermore, we verified the stability of the proteins using differential scanning calorimetry (DSC) by analysing thermostability and potential differences in folding of wild-type SBD1-2 and linker mutants (figure 6b,c; electronic supplementary material, table S7). In the unliganded state, the melting temperature of both single SBDs was 59°C [41], which is the same for all tandem SBD1-2 mutants. The addition of either asparagine or glutamine increased the protein stability of the tandem resulting in a higher melting temperature of approximately 62°C for SBD1 and greater than or equal to 69°C for SBD2. […] We assign the peak shifts to a specific SBD by comparing the melting temperatures of the tandem SBD1-2 to that of the single SBDs. […] We find that linker deletions of 5 and 8 amino acids increase the stability of the proteins by 2–3°C. Maximal stabilization of SBD2 in SBD1-2 tandems is observed in the presence of glutamine, […] (figure 6c).
To determine the proteins thermal stability, DSC experiments were performed as described previously. Briefly, the purified SBDs were dialysed overnight against the DSC working buffer, i.e. 50 mM KPi (pH 7.0), 150 mM KCl, 1 mM EDTA and 1 mM NaN3. DSC experiments with working buffer solutions containing 4 µM of an SBD-mutant and 5 mM substrate were conducted on a VP-DSC Calorimeter (MicroCal, GE Healthcare, Buckinghamshire). The melting temperature Tm was determined by ORIGIN 8 (Origin Lab Corp, Northampton, MA).

[3] = target: SBD2 of GlnPQ (isolated domain); parameters: method as in PMID 23994008; settings: ITC; cited from earlier work
[4] = target: SBD1 within the tandem SBD1-2 (Lactococcus lactis, UniProt Q9CES5); test: Isothermal titration calorimetry, SBD1 site of tandem SBD1-2; type: binding; settings: SBD1 within tandem SBD1-2; ITC, 25°C, pH 6.0
Sequence of SBD1 within the tandem SBD1-2 (Q9CES5 entry or part of it): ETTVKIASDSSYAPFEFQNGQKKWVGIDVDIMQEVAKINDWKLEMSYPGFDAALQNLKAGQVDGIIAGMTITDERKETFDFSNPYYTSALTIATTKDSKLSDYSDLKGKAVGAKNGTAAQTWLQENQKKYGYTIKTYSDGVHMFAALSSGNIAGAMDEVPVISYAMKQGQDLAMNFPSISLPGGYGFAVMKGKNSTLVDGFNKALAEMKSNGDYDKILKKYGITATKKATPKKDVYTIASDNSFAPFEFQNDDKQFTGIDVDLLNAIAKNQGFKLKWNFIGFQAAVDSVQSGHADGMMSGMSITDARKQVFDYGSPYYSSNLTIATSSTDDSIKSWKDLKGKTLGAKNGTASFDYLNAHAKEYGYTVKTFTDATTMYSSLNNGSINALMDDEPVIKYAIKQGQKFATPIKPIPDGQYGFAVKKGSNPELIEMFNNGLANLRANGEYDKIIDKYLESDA
Procedure: (§1) ITC experiments were performed as described previously. Briefly, the purified SBDs were dialysed overnight against 50 mM KPi (pH 6.0), 1 mM EDTA and 1 mM NaN3. Isothermal titration experiments were carried out using an ITC-200 (MicroCal, GE Healthcare, Buckinghamshire, UK). For these experiments, the substrate was prepared in the dialysis buffer to minimize mixing effects. All experiments were carried out at 25°C and a mixing rate of 1000 r.p.m. The concentration of SBD1 and SBD2 and associated tandem mutants varied between 20 and 100 µM during the experiment, depending on the expected KD of the protein under investigation. For titration experiments with asparagine typically the concentration of ligand in the syringe was 8–10× the concentration in the cell. […] The recorded data was approximated by a one- respectively two-site binding model and fitted using the nonlinear curve-fitting tool provided by ORIGIN 8 (Origin Lab Corp., Northhampton, MA) to describe the molar enthalpy change ΔH for protein–ligand complex formation, the stoichiometry n and the corresponding association constant KA. […] The molar entropy change ΔS was calculated from ΔG = ΔH − TΔS. […] For analysing the glutamine binding to SBD1-Δ5-SBD2, which features two binding sites, we first determined the parameters for the single site using the conditions of asparagine binding to SBD1. […]

[5] = target: SBD2 within the tandem SBD1-2 (Lactococcus lactis, UniProt Q9CES5); test: Isothermal titration calorimetry, SBD2 site of tandem SBD1-2; type: binding; settings: ITC
Sequence of SBD2 within the tandem SBD1-2 (Q9CES5 entry or part of it): as above
Procedure: as §1

Row | SMILES | Kd [1] [nM] | melting temperature of SBD1 in the tandem after addition of ligand [2] | melting temperature of SBD2 in the tandem after addition of ligand [2] | Kd [3] [nM] | Kd [4] | Kd ([5]; SBD2 within tandem SBD1-2, SBD1 blocked with 1 mM asparagine) [nM] | Kd ([5]; SBD2 within tandem SBD1-2, no asparagine, 25°C, pH 6.0) [nM]
1 | NC(=O)CC[C@H](N)C(=O)O [glutamine] | 90000 | approximately 62 °C | greater than or equal to 69 °C | ~900 | 180000 nM and ~100000 nM | 900 | 600 ± 200
2 | NC(=O)C[C@H](N)C(=O)O [asparagine] | 200 | approximately 62 °C | greater than or equal to 69 °C | – | 400 ± 100 nM | – | –
